{"source": "patent US20130287700A1", "about": "“COMPOUNDS FOR THE DIAGNOSIS OF NEURODEGENERATIVE DISORDERS ON THE OLFACTORY EPITHELIUM” (KLINIKUM DARMSTADT GMBH, priority 2010, published 2013)", "note": "Entries after “also recorded” stand apart in the source; their conditions may differ."}
{"test_system": "Aβ plaque", "assay": "Staining of tissue sections with the dyes, fluorescence microscopy: Aβ deposits in brain/hippocampus", "type": "binding, human", "conditions": "hippocampus, AD+, DAPI filter", "protocol": "(§1) Tissue samples were fixed in 10% buffered formalin solution and embedded in paraffin. Slices of 4 μm thickness were prepared using a microtome and mounted on a slide in a water bath. Deparaffinization was carried out according to the following steps:\n(§2) Xylene 15 min, 100% ethanol 10 min, 96% ethanol 10 min, 70% ethanol 10 min and storage in water until staining.\n(§3) Staining with dyes of this invention was subsequently performed according to the following procedure steps:\n(§4) Dyes of the present invention were applied in 0.01-1% ethanolic or methanolic solution dropwise onto the tissue section (50-200 μL) and incubated in a moist, EtOH/MeOH saturated and light-protected chamber for 10 min.\n(§5) In the case of poorly soluble substances, up to 10% DMSO were added and, if required, filtered through a syringe filter (0.45 μm pore size).\n(§6) Samples were stained with dyes of the present invention as described in example 21 and subsequently investigated using a Zeiss Axioskop, ABO 100 Hg fluorescent lamp, camera: Leica DFC300FX. Depending on the respective dye used, either a FITC filter or a DAPI filter was utilized."}
{"smiles": "CN(C)c1ccc(/C=C/c2cnc(/C=C/c3ccc(N(C)C)cc3)cn2)cc1", "note": "[BSc4352, 4,4′-(1E,1′E)-2,2′-(pyrazine-2,5-diyl)bis(ethene-2,1-diyl)bis(N,N-dimethylaniline)]", "Structure stained by the dye": "Aβ plaque"}
{"smiles": "CN(C)c1ccc(/C=C/c2cc(/C=C/c3ccc(N(C)C)cc3)ncn2)cc1", "note": "[BSc4090, 4-((1E)-2-(6-(4-(dimethylamino)styryl)pyrimidine-4-yl)vinyl)-N,N-dimethylbenzenamine]", "Structure stained by the dye": "Aβ plaque"}
{"smiles": "C(=C\\c1cccc2ccccc12)/c1cc(/C=C/c2cccc3ccccc23)ncn1", "note": "[BSc4328, 4,6-Bis((E)-2-(naphthalene-1-yl)vinyl)pyrimidine]", "Structure stained by the dye": "Aβ plaque"}
{"smiles": "CSc1nc(/C=C/c2ccc(N(C)C)cc2)cc(/C=C/c2ccc(N(C)C)cc2)n1", "note": "[BSc4097, 4,4′-(1E,1′E)-2,2′-(2-(methylthio)pyrimidine-4,6-diyl)bis(ethene-2,1-diyl)bis(N,N-dimethylaniline)]", "Structure stained by the dye": "Aβ plaque"}
{"smiles": "O=C(NCc1cccc(F)c1)Nc1ccc2nonc2c1", "note": "[BSc4138, 1-(Benzo[c][1,2,5]oxadiazol-5-yl)-3-(3-fluorobenzyl)urea]", "Structure stained by the dye": "Aβ plaque"}
{"smiles": "Cn1c2ccccc2c2cc(/C=N\\Nc3ccc(-c4nc5ccccc5s4)cc3)ccc21", "note": "[BSc4342, (Z)-1-(4-(benzo[d]thiazol-2-yl)phenyl)-2-((9-methyl-9H-carbazol-3-yl)methylene)hydrazin]", "Structure stained by the dye": "Aβ plaque"}
{"smiles": "C(=N/Nc1ccc(-c2nc3ccccc3s2)cc1)/c1cccnc1", "note": "[BSc4337, (Z)-1-(4-(benzo[d]thiazol-2-yl)phenyl)-2-((pyridine-3-yl)methylene)hydrazine]", "Structure stained by the dye": "Aβ plaque"}
{"test_system": "Aβ plaque", "assay": "Staining of tissue sections with the dyes, fluorescence microscopy: Aβ deposits in brain/hippocampus", "type": "binding, human", "conditions": "hippocampus, AD+, FITC filter", "protocol": "as §1, §2, §3, §4, §5, §6"}
{"smiles": "CN(C)c1ccc(/C=C/c2cc(/C=C/c3ccc(N(C)C)cc3)ncn2)cc1", "note": "[BSc4090, 4-((1E)-2-(6-(4-(dimethylamino)styryl)pyrimidine-4-yl)vinyl)-N,N-dimethylbenzenamine]", "Structure stained by the dye": "Aβ plaque"}
{"smiles": "Cn1cccc1/C=C/c1cnc(/C=C/c2cccn2C)cn1", "note": "[BSc4353, 2,5-Bis((E)-2-(1-methyl-1H-pyrrol-2-yl)vinyl)pyrazine]", "Structure stained by the dye": "Aβ in angiopathy; also recorded: Aβ plaque"}
{"smiles": "Cn1cccc1/C=C/c1cc(/C=C/c2cccn2C)ncn1", "note": "[BSc4327, 4,6-Bis((E)-2-(1-methyl-1H-pyrrol-2-yl)vinyl)pyrimidine]", "Structure stained by the dye": "Aβ in angiopathy"}
{"smiles": "COc1ccc(/C=C/c2cnc(/C=C/c3ccc(OC)cc3)cn2)cc1", "note": "[BSc4354, 2,5-Bis(4-methoxystyryl)pyrazine]", "Structure stained by the dye": "Aβ in angiopathy; also recorded: Aβ plaque"}
{"test_system": "Tau fibril", "assay": "Staining of tissue sections with the dyes, fluorescence microscopy: Tau in hippocampus", "type": "binding, human", "conditions": "person, AD, DAPI filter", "protocol": "as §1, §2, §3, §4, §5, §6"}
{"smiles": "CCN(CC)c1ccc2cc(-c3csc(NNC(=O)c4cccnc4)n3)c(=O)oc2c1", "note": "[BSc4007, N′-(4-(7-(diethylamino)-2-oxo-2H-chromen-3-yl)thiazol-2-yl)nicotinohydrazide]", "Structure stained by the dye": "Tau fibril"}
{"smiles": "O=C(NCc1cccc(F)c1)Nc1ccc2nonc2c1", "note": "[BSc4138, 1-(Benzo[c][1,2,5]oxadiazol-5-yl)-3-(3-fluorobenzyl)urea]", "Structure stained by the dye": "Tau fibril"}
